We go through two compounds from patent US12655458B2, “Methods for cyclization of (poly)peptides comprising nγ-hydroxy- or Nγ-amino-L-asparagine” (priority 2021, dated 2026).

Starred links: 1 amine or outer side, 2 acyl side, 3 side chain; linkers in the order of their positions; H or OH if unused. Positions of bridges follow the written chain, without caps; N, C: chain ends. Non-standard residues stand in square brackets, D forms with d. Residues, ends and D or L forms follow the SMILES beside them. N(NH2) = N-gamma-amino-L-asparagine, O=C(C[C@H](N[*:1])C(=O)[*:2])NN[*:3] Where only a bound is given, the exact number is not on record here.

One assay concerns the target T1, MMP2 (Homo sapiens, UniProt P08253).
T1 construct: purchased Sigma-Aldrich
T1 sequence (P08253 110-660): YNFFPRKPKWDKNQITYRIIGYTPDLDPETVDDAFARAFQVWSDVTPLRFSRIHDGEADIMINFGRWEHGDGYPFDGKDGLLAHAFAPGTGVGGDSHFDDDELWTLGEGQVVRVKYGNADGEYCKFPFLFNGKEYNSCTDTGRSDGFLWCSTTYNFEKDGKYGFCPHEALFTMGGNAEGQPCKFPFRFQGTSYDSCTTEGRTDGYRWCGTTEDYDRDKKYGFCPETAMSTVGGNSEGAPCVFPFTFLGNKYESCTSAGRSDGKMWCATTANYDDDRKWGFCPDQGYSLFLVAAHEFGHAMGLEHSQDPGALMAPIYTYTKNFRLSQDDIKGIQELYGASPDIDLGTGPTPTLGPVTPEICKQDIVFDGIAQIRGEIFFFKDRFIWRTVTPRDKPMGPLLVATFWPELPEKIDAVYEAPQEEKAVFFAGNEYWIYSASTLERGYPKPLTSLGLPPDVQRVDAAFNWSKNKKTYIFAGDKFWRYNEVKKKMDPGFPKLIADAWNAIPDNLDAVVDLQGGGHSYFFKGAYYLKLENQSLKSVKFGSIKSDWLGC
The assay can be described thus: MMPs inhibition assay (FRET substrate), MMP2. It counts as biochemical. As for the experimental part: (§1) The inhibitory activity of the peptides was determined by measuring the MMPs' protease activity towards a FRET substrate. 0.8 nM MMP2 or MMP9 (Sigma-Aldrich), 10 μM substrate (FAM-Lys-Pro-Leu-Gly-Leu-Lys(Dabcyl)-Ala-Arg-NH2, λex 490 nm; λem 520 nm) and various concentrations of the peptides (0.0001 μM-10 μM or 0.001 μM-100 μM) were used. The reactions were performed in 50 mM Tris-HCl buffer (pH 7.5) containing 150 mM NaCl, 10 mM CaCl2, 0.05% Brij35, at 37° C. MMP2 was pre-incubated with the peptide inhibitors for 10 min before adding the substrate. All the numbers were input into GraphPad Prism (GraphPad Software, San Diego) for IC50 calculation.

For another assay, the target named is T2, MMP9 (Homo sapiens, UniProt P14780).
T2 construct: purchased Sigma-Aldrich
T2 sequence (P14780 94-707, species assumed): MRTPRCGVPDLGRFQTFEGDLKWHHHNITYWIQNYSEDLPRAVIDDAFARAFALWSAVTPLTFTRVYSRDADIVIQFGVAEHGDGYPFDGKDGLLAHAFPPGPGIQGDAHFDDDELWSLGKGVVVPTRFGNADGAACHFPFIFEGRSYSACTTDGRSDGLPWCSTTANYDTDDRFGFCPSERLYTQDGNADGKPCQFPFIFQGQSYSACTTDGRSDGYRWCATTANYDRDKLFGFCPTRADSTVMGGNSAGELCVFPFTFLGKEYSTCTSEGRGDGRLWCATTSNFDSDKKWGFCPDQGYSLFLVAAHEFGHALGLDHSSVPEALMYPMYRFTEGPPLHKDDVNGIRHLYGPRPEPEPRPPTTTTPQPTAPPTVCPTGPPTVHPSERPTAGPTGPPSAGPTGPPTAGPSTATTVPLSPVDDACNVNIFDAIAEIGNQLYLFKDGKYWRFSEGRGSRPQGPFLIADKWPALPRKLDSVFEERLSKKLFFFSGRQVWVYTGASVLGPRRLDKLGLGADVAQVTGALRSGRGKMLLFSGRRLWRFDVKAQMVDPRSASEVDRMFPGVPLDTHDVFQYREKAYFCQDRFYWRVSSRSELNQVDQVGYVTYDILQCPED
The assay can be described thus: MMPs inhibition assay (FRET substrate), MMP9. It counts as biochemical. As for the experimental part:
as §1

For the next assay, the system named is butelase 1. Description: Butelase 1-mediated inter-peptide ligation with acyl acceptor GIRGI. It counts as biochemical, Clitoria ternatea. The conditions noted are these: 400 uM peptide, 3.2 mM GIRGI, 0.01 eq butelase 1, pH 6.5, room temperature. As for the experimental part:
The reaction was conducted using 400 uM of Ac-KYSN(NH2)GL and 3.2 mM of GIRGI (8 eq) in the presence of 0.01 eq butelase 1 in 20 mM PBS buffer (pH 6.5) at room temperature. The ligation product was obtained in >80% yield in 1 h (FIG. 28, lower panel). The fact that Asn(NH2) can be recognized by butelase 1 as a P1 residue for inter-peptide ligation indicates it can also be used to mediate peptide cyclization (FIG. 27).

butelase 1, sequence (as listed by the source): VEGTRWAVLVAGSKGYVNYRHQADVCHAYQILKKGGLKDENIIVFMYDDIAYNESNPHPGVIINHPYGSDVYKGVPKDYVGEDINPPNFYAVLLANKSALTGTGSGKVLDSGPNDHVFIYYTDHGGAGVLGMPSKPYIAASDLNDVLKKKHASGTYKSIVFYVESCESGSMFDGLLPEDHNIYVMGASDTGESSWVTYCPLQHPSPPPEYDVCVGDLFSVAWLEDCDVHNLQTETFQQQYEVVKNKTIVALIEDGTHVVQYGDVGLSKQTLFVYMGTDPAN

One may read the Ki as a dissociation constant, usually derived from enzyme kinetics or from competition with a known ligand. Regarding `CC[C@H](C)[C@@H]1NC(=O)[C@@H]2CSSC[C@H](NC(=O)[C@H](CCCNC(=N)N)NC(=O)[C@@H]3CSSC[C@H](NC1=O)C(=O)N[C@@H]([C@@H](C)O)C(=O)N[C@@H](CCCNC(=N)N)C(=O)NCC(=O)N[C@@H](Cc1ccccc1)C(=O)N3)C(=O)N[C@@H](CC(C)C)C(=O)N[C@H]1CSSC[C@H](NC(=O)[C@H](C(C)C)NC(=O)CNC(=O)[C@H](CCCNC(=N)N)NC(=O)[C@H](CCCNC(=N)N)NC1=O)C(=O)N[C@@H](CCCNC(=N)N)C(=O)N2` [Peptide 16, reference compound] (cyclo(GFCRCLCRRGVCRCICTR); disulfide 3-16, 5-14, 7-12 (inferred); ring closure inferred), the Ki is 60 ± 10.4 nM at MMP2 and greater than 10000 nM on MMP9. Regarding “Ac-KYSN(NH2)GL (Ac-KYS[N(NH2)]GL-NH2; SMILES CC(=O)N[C@@H](CCCCN)C(=O)N[C@@H](Cc1ccc(O)cc1)C(=O)N[C@@H](CO)C(=O)N[C@@H](CC(=O)NN)C(=O)NCC(=O)N[C@@H](CC(C)C)C(N)=O)”, the “acyl donor substrate in butelase 1-mediated ligation” value in the assay on butelase 1 is given as “good acyl donor substrate”.
